In patent publication US7834007B2, “CGRP antagonists” (Bristol-Myers Squibb Company, priority 2005, dated 2010):

Molecular target: T1, CGRP receptor (Homo sapiens, UniProt O60894+Q16602)
T1 construct: endogenous in cells; host or cells: SK-N-MC cells (membrane homogenate)
Experiment: CGRP radioligand binding assay ([125I]-CGRP displacement, SK-N-MC cell homogenate)
Settings: displacement of 50% of [125I]-CGRP binding, room temperature 2 h
Protocol: CGRP radioligand binding assay. Tissue Culture. SK-N-MC cells were grown at 37° C. in 5% CO2 as a monolayer in medium consisting of MEM with Earle's salts and L-glutamine (Gibco) supplemented with 10% fetal bovine serum (Gibco).
Cell Pellets. The cells were rinsed twice with phosphate-buffered saline (155 mM NaCl, 3.3 mM Na2HPO4, 1.1 mM KH2PO4, pH 7.4), and incubated for 5-10 min. at 4° C. in hypotonic lysis buffer consisting of 10 mM Tris (pH 7.4) and 5 mM EDTA. The cells were transferred from plates to polypropylene tubes (16×100 mm) and homogenized using a polytron. Homogenates were centrifuged at 32,000×g for 30 min. The pellets were resuspended in cold hypotonic lysis buffer with 0.1% mammalian protease inhibitor cocktail (Sigma) and assayed for protein concentration. The SK-N-MC homogenate was then aliquoted and stored at −80° C. until needed.
Binding Assay. The compounds of invention were solubilized and carried through serial dilutions using 100% DMSO. Aliquots from the compound serial dilutions were further diluted 25 fold into assay buffer (50 mM Tris-Cl pH 7.5, 5 mM MgCl2, 0.005% Triton X-100) and transferred (volume 50 μl) into 96 well assay plates. [^125I]-CGRP (Amersham Biosciences) was diluted to 60 pM in assay buffer and a volume of 50 μl was added to each well. SK-N-MC pellets were thawed, diluted in assay buffer with fresh 0.1% mammalian protease inhibitor cocktail (Sigma), and homogenized again. SK-N-MC homogenate (5 μg/well) was added in a volume of 100 μl. The assay plates were then incubated at room temperature for 2 h. Assays were stopped by addition of excess cold wash buffer (20 mM Tris-Cl pH 7.5, 0.1% BSA) immediately followed by filtration over glass fiber filters (Whatman GF/B) previously soaked in 0.5% PEI. Non-specific binding was defined with 1 μM beta-CGRP. Protein bound radioctivity was determined using a gamma or scintillation counter. The IC50 was defined as the concentration of a compound of invention required to displace 50% of radioligand binding. Results are tabulated in Table 1 as follows: 0.01 nM≦A≦10 nM; 10 nM<B≦100 nM; 100 nM<C≦1000 nM; D>1000 nM.

T1 sequence (Q16602 23-461): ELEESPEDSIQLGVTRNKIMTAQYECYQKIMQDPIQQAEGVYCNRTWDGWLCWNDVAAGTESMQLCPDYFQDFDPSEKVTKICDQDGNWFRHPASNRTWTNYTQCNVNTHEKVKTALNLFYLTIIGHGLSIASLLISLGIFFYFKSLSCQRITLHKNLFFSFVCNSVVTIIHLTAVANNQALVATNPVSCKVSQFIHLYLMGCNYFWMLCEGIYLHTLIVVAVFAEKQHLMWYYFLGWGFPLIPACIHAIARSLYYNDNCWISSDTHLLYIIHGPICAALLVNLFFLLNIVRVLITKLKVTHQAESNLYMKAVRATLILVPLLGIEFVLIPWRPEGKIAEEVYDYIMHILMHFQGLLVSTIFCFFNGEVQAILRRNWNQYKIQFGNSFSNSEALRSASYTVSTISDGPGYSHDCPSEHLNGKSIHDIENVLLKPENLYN
T1 sequence (O60894 27-148): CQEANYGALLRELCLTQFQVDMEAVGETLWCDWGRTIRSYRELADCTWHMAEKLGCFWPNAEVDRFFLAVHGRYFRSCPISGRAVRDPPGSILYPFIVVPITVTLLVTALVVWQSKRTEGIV

Row | IC50 [nM] | Compound
1 | 0.01 to 10 | Cc1cc(C[C@@H](NC(=O)N2CCC(c3cc4ccccc4[nH]c3=O)CC2)C(=O)N[C@@H](CCCCN)C(=O)N2CCN(c3ccncc3)CC2)cc2cn[nH]c12 [Example 2, N-((R)-1-((S)-6-amino-1-oxo-1-(4-(pyridin-4-yl)piperazin-1-yl)hexan-2-ylamino)-3-(7-methyl-1H-indazol-5-yl)-1-oxopropan-2-yl)-4-(2-oxo-1,2-dihydroquinolin-3-yl)piperidine-1-carboxamide]
2 | 0.01 to 10 | Cc1cc(C[C@@H](NC(=O)N2CCC(N3Cc4ccccc4NC3=O)CC2)C(=O)N[C@@H](CCCCNC(=O)OC(C)(C)C)C(=O)N2CCN(c3ccncc3)CC2)cc2cn[nH]c12 [Example 3, tert-Butyl (S)-5-((R)-3-(7-methyl-1H-indazol-5-yl)-2-(4-(2-oxo-1,2-dihydroquinazolin-3(4H)-yl)piperidine-1-carboxamido)propanamido)-6-oxo-6-(4-(pyridin-4-yl)piperazin-1-yl)hexylcarbamate]
3 | 0.01 to 10 | Cc1cc(C[C@@H](NC(=O)N2CCC(N3Cc4ccccc4NC3=O)CC2)C(=O)N[C@@H](CCCCN)C(=O)N2CCN(c3ccncc3)CC2)cc2cn[nH]c12 [Example 4, N-((R)-1-((S)-6-Amino-1-oxo-1-(4-(pyridin-4-yl)piperazin-1-yl)hexan-2-ylamino)-3-(7-methyl-1H-indazol-5-yl)-1-oxopropan-2-yl)-4-(2-oxo-1,2-dihydroquinazolin-3(4H)-yl)piperidine-1-carboxamide]
4 | 0.01 to 10 | Cc1cc(C[C@@H](NC(=O)N2CCC(c3cc4ccccc4[nH]c3=O)CC2)C(=O)N[C@@H](CCCCN)C(=O)N2CCC(N3CCCCC3)CC2)cc2cn[nH]c12 [Example 5, N-((R)-1-((S)-6-amino-1-oxo-1-(4-(piperidin-1-yl)piperidin-1-yl)hexan-2-ylamino)-3-(7-methyl-1H-indazol-5-yl)-1-oxopropan-2-yl)-4-(2-oxo-1,2-dihydroquinolin-3-yl)piperidine-1-carboxamide]
5 | 0.01 to 10 | Cc1cc(C[C@@H](NC(=O)N2CCC(c3cc4cccc(F)c4[nH]c3=O)CC2)C(=O)N[C@@H](CCCCN)C(=O)N2CCN(c3ccncc3)CC2)cc2cn[nH]c12 [Example 6, N-((R)-1-((S)-6-amino-1-oxo-1-(4-(pyridin-4-yl)piperazin-1-yl)hexan-2-ylamino)-3-(7-methyl-1H-indazol-5-yl)-1-oxopropan-2-yl)-4-(8-fluoro-2-oxo-1,2-dihydroquinolin-3-yl)piperidine-1-carboxamide]
6 | 0.01 to 10 | Cc1cc(C[C@@H](NC(=O)N2CCC(c3cc4cccnc4[nH]c3=O)CC2)C(=O)N[C@@H](CCCCN)C(=O)N2CCN(c3ccncc3)CC2)cc2cn[nH]c12 [Example 7, N-((R)-1-((S)-6-amino-1-oxo-1-(4-(pyridin-4-yl)piperazin-1-yl)hexan-2-ylamino)-3-(7-methyl-1H-indazol-5-yl)-1-oxopropan-2-yl)-4-(2-oxo-1,2-dihydro-1,8-naphthyridin-3-yl)piperidine-1-carboxamide]
7 | 0.01 to 10 | Cc1cc(C[C@@H](NC(=O)N2CCC(c3cc4ccccc4[nH]c3=O)CC2)C(=O)N[C@@H](CCCCNC(=O)OC(C)(C)C)C(=O)N2CCN(c3ccncc3)CC2)cc2oc(=O)[nH]c12 [Example 8, tert-Butyl (S)-5-((R)-3-(4-methyl-2-oxo-2,3-dihydrobenzo[d]oxazol-6-yl)-2-(4-(2-oxo-1,2-dihydroquinolin-3-yl)piperidine-1-carboxamido)propanamido)-6-oxo-6-(4-(pyridin-4-yl)piperazin-1-yl)hexylcarbamate]
8 | 0.01 to 10 | Cc1cc(C[C@@H](NC(=O)N2CCC(N3Cc4cccc(F)c4NC3=O)CC2)C(=O)N[C@@H](CCCCNC(=O)OC(C)(C)C)C(=O)N2CCN(c3ccncc3)CC2)cc2nn[nH]c12 [Example 9, tert-Butyl (S)-5-((R)-2-(4-(8-fluoro-2-oxo-1,2-dihydroquinazolin-3(4H)-yl)piperidine-1-carboxamido)-3-(7-methyl-1H-benzo[d][, 2,3]triazol-5-yl)propanamido)-6-oxo-6-(4-(pyridin-4-yl)piperazin-1-yl)hexylcarbamate]
